In patent US12186740B2, “Kits comprising containers with at least one solid catalytically active compound, and their uses in solid state reaction” (RD&C Research, Development & Consulting GmbH, priority 2018, dated 2025):
Like-named read-outs stand apart in the source and are kept apart here.

Assays:
[1] = after 60 minutes process time
[2] = KMnO4 on aluminium oxide, dry; process times 60 to 300 minutes
[3] = 90 min, no additives
Procedure: As documented in literature clopidogrel bisulphate exists in one amorphous and two polymorphic forms, polymorph II was used for the experiments described. To elucidate the stability and detect changes of the polymorphic form after energy input a simple experimental set-up with the API and no further additives was executed and the polymorphic form was analysed by WAXS (wide-angel X-ray scattering) and DSC (differential scanning calorimetry).
These experiments could be used to evaluate the stability of various polymorphic forms in general, but could also indicate the stability/instability during industrial processing and manufacturing.

[4] = acidic stressor at 40° C./75% relative humidity for 3 months; cited from earlier work
[5] = Proof of concept: solid phase oxidation in a ball mill with a solid catalyst; assay type: physicochemical
Procedure: The first experiment was focused on a simple, well characterized API and other molecules with low structural complexity but with representative functional groups. They were systematically combined with a selection of potentially suitable catalysts. The solid phase reactions were initiated by ball milling for energy transfer in a controlled environment. In a first experimental set-up the oxidation in solid phase systems was analysed including a systematic evaluation of various catalysts, carrier matrices and reaction conditions.
The following analytical methods were implemented. Two solid phase oxidation reactions were prepared. The catalyst used was KMnO4 on silica and the active reaction container was a ball mill.

| SMILES | quantity of degradation, solid phase conditions vs conventional forced degradation conditions ([1]; based on AUCs in the HPLC method) | acidic degradation product (RT 15 min) ([1]; solid phase set-up, acidic solid phase catalyst) | follow-up or second line degradation products [2] | oxidative degradation products formed [2] | time-dependency of the degradation reaction [2] | polymorphic form after milling (DSC profile) ([3]; milling 10 Hz) | polymorphic form after milling (DSC profile) ([3]; milling 25 Hz) | acidic degradation product (RT 15 min) [4] | oxidation product(s) formed ([5]; KMnO4 on silica, ball mill) | oxidation product(s) formed ([5]; on aluminium oxide) |
| --- | --- | --- | --- | --- | --- | --- | --- | --- | --- | --- |
| COC(=O)[C@H](c1ccccc1Cl)N1CCc2sccc2C1 [clopidogrel bisulphate] | comparable amount | could also be detected | no follow-up or second line degradation products occurred | two oxidative solid phase degradation products | clear time-dependency | minor changes and higher stability | change of the polymorphic form II to the amorphous state | detected | – | – |
| c1ccc(Sc2ccccc2)cc1 [diphenylsulfide] | – | – | – | – | – | – | – | – | diphenylsulfoxide and diphenylsulfone | solely the higher oxidation state product diphenyl sulfone, but no diphenylsulfoxide |
